Species: Rattus norvegicus
Experiment: DrugMatrix - Regimen: Daily Repeat
Type: toxicity, organism-based, Sprague-Dawley
Parameters: regimen Daily Repeat, gender Male, age 6-8 weeks
Details: in vivo, po, route oral GAVAGE, […]; for ABSOLUTE BASOPHIL / ABSOLUTE EOSINOPHIL / ABSOLUTE LYMPHOCYTE / ABSOLUTE MONOCYTE / ABSOLUTE SEGMENTED NEUTROPHIL / BASOPHIL / EOSINOPHIL / ERYTHROCYTE COUNT / HEMATOCRIT / HEMOGLOBIN / LEUKOCYTE COUNT / LYMPHOCYTE / MEAN CORPUSCULAR HEMOGLOBIN / MEAN CORPUSCULAR HEMOGLOBIN CONCENTRATION / MEAN CORPUSCULAR VOLUME / MONOCYTE / NEUTROPHIL / NUCLEATED RED BLOOD CELLS / PLATELET COUNT: tissue Blood; for ALANINE AMINOTRANSFERASE / ALBUMIN / ALKALINE PHOSPHATASE / ASPARTATE AMINOTRANSFERASE / BLOOD UREA NITROGEN / CARBON DIOXIDE / CHLORIDE / CHOLESTEROL / CREATINE PHOSPHOKINASE / CREATININE / GLUCOSE / LACTATE DEHYDROGENASE / LIPASE / PHOSPHORUS / POTASSIUM / SODIUM / TOTAL BILIRUBIN / TOTAL PROTEIN / URIC ACID: tissue Plasma
[1] = 1 mg/kg, 120 h, dose level Low, time 5 day
[2] = 14 mg/kg, 72 h, dose level High, time 3 day
[3] = 14 mg/kg, 120 h, dose level High, time 5 day

`CCOC(=O)C1=C(C)NC(C)=C(C(=O)OCC)C1c1ccccc1/C=C/C(=O)OC(C)(C)C` [LACIDIPINE] was tested, and the “ABSOLUTE BASOPHIL” value [1] was 0 CELLS/uL, the “ABSOLUTE EOSINOPHIL” value [1] was 0 CELLS/uL and the “ABSOLUTE LYMPHOCYTE” value [1] was 13674 CELLS/uL. For the same compound, the “ABSOLUTE MONOCYTE” value [1] was 253 CELLS/uL, the “ABSOLUTE SEGMENTED NEUTROPHIL” value [1] was 1206.33 CELLS/uL and the BASOPHIL [1] was 0%. For the same compound, the EOSINOPHIL [1] was 0%, the “ERYTHROCYTE COUNT” value [1] was 6.05 x10E6/uL and the HEMATOCRIT [1] was 38.43%. The HEMOGLOBIN [1] was 15 G/DL, the “LEUKOCYTE COUNT” value [1] was 15.13 x10E3/uL and the LYMPHOCYTE [1] was 90.33%. The “MEAN CORPUSCULAR HEMOGLOBIN” value [1] was 24.8 pg, the “MEAN CORPUSCULAR HEMOGLOBIN CONCENTRATION” value [1] was 39.07 G/DL and the “MEAN CORPUSCULAR VOLUME” value [1] was 63.47 fL. The MONOCYTE [1] was 1.67%, the NEUTROPHIL [1] was 8% and the “NUCLEATED RED BLOOD CELLS” value [1] was 0.33 /100WBC. The “PLATELET COUNT” value [1] was 1182 x10E3/uL, the “ALANINE AMINOTRANSFERASE” value [1] was 60.33 u/L and the ALBUMIN [1] was 4.13 G/DL. For the same compound, the “ALKALINE PHOSPHATASE” value [1] was 378.33 u/L, the “ASPARTATE AMINOTRANSFERASE” value [1] was 70.67 u/L and the “BLOOD UREA NITROGEN” value [1] was 12.67 mg/dL. The “CARBON DIOXIDE” value [1] was 30 mmol/L, the CHLORIDE [1] was 99.67 MEQ/L and the CHOLESTEROL [1] was 69 mg/dL. The “CREATINE PHOSPHOKINASE” value [1] was 271.67 u/L, the CREATININE [1] was 0.17 mg/dL and the GLUCOSE [1] was 166.33 mg/dL. The “LACTATE DEHYDROGENASE” value [1] was 125.67 u/L, the LIPASE [1] was 10 u/L and the PHOSPHORUS [1] was 10.93 mg/dL. The POTASSIUM [1] was 6.75 MEQ/L, the SODIUM [1] was 141.97 MEQ/L and the “TOTAL BILIRUBIN” value [1] was 0.17 mg/dL. The “TOTAL PROTEIN” value [1] was 5.83 G/DL, the “URIC ACID” value [1] was 1.9 mg/dL and the “ABSOLUTE BASOPHIL” value [2] was 0 CELLS/uL. For the same compound, the “ABSOLUTE EOSINOPHIL” value [2] was 0 CELLS/uL, the “ABSOLUTE LYMPHOCYTE” value [2] was 6598.33 CELLS/uL and the “ABSOLUTE MONOCYTE” value [2] was 95.33 CELLS/uL. For the same compound, the “ABSOLUTE SEGMENTED NEUTROPHIL” value [2] was 673 CELLS/uL, the BASOPHIL [2] was 0% and the EOSINOPHIL [2] was 0%. For the same compound, the “ERYTHROCYTE COUNT” value [2] was 6.39 x10E6/uL, the HEMATOCRIT [2] was 38.67% and the HEMOGLOBIN [2] was 15.2 G/DL. For the same compound, the “LEUKOCYTE COUNT” value [2] was 7.37 x10E3/uL, the LYMPHOCYTE [2] was 89.67% and the “MEAN CORPUSCULAR HEMOGLOBIN” value [2] was 23.8 pg. The “MEAN CORPUSCULAR HEMOGLOBIN CONCENTRATION” value [2] was 39.33 G/DL, the “MEAN CORPUSCULAR VOLUME” value [2] was 60.53 fL and the MONOCYTE [2] was 1.33%. For the same compound, the NEUTROPHIL [2] was 9%, the “NUCLEATED RED BLOOD CELLS” value [2] was 0.33 /100WBC and the “PLATELET COUNT” value [2] was 1020.33 x10E3/uL. For the same compound, the “ALANINE AMINOTRANSFERASE” value [2] was 81.67 u/L, the ALBUMIN [2] was 4 G/DL and the “ALKALINE PHOSPHATASE” value [2] was 315.33 u/L. For the same compound, the “ASPARTATE AMINOTRANSFERASE” value [2] was 94 u/L, the “BLOOD UREA NITROGEN” value [2] was 9.33 mg/dL and the “CARBON DIOXIDE” value [2] was 25 mmol/L. The CHLORIDE [2] was 94.33 MEQ/L, the CHOLESTEROL [2] was 62.33 mg/dL and the “CREATINE PHOSPHOKINASE” value [2] was 287 u/L. For the same compound, the CREATININE [2] was 0.4 mg/dL, the GLUCOSE [2] was 140 mg/dL and the “LACTATE DEHYDROGENASE” value [2] was 223.33 u/L. For the same compound, the LIPASE [2] was 9.67 u/L, the PHOSPHORUS [2] was 8.63 mg/dL and the POTASSIUM [2] was 4.28 MEQ/L. For the same compound, the SODIUM [2] was 137.47 MEQ/L, the “TOTAL BILIRUBIN” value [2] was 0.2 mg/dL and the “TOTAL PROTEIN” value [2] was 5.47 G/DL. For the same compound, the “URIC ACID” value [2] was 0.53 mg/dL, the “ABSOLUTE BASOPHIL” value [3] was 0 CELLS/uL and the “ABSOLUTE EOSINOPHIL” value [3] was 59.67 CELLS/uL. For the same compound, the “ABSOLUTE LYMPHOCYTE” value [3] was 14336 CELLS/uL, the “ABSOLUTE MONOCYTE” value [3] was 190.33 CELLS/uL and the “ABSOLUTE SEGMENTED NEUTROPHIL” value [3] was 2280.67 CELLS/uL. For the same compound, the BASOPHIL [3] was 0%, the EOSINOPHIL [3] was 0.33% and the “ERYTHROCYTE COUNT” value [3] was 6.95 x10E6/uL. The HEMATOCRIT [3] was 41.6%, the HEMOGLOBIN [3] was 16.07 G/DL and the “LEUKOCYTE COUNT” value [3] was 16.87 x10E3/uL. The LYMPHOCYTE [3] was 85.33%, the “MEAN CORPUSCULAR HEMOGLOBIN” value [3] was 23.17 pg and the “MEAN CORPUSCULAR HEMOGLOBIN CONCENTRATION” value [3] was 38.67 G/DL. The “MEAN CORPUSCULAR VOLUME” value [3] was 59.9 fL, the MONOCYTE [3] was 1% and the NEUTROPHIL [3] was 13.33%. For the same compound, the “NUCLEATED RED BLOOD CELLS” value [3] was 0 /100WBC, the “PLATELET COUNT” value [3] was 1126 x10E3/uL and the “ALANINE AMINOTRANSFERASE” value [3] was 90.33 u/L. The ALBUMIN [3] was 4.47 G/DL, the “ALKALINE PHOSPHATASE” value [3] was 262.33 u/L and the “ASPARTATE AMINOTRANSFERASE” value [3] was 95.67 u/L. For the same compound, the “BLOOD UREA NITROGEN” value [3] was 10.33 mg/dL, the “CARBON DIOXIDE” value [3] was 25.33 mmol/L and the CHLORIDE [3] was 97.67 MEQ/L. The CHOLESTEROL [3] was 58.67 mg/dL, the “CREATINE PHOSPHOKINASE” value [3] was 234.67 u/L and the CREATININE [3] was 0.14 mg/dL. For the same compound, the GLUCOSE [3] was 154.67 mg/dL, the “LACTATE DEHYDROGENASE” value [3] was 217 u/L and the LIPASE [3] was 9.33 u/L. It also gave a PHOSPHORUS [3] of 11.23 mg/dL, a POTASSIUM [3] of 4.62 MEQ/L and an SODIUM [3] of 138.03 MEQ/L. The “TOTAL BILIRUBIN” value [3] was 0.33 mg/dL, the “TOTAL PROTEIN” value [3] was 5.93 G/DL and the “URIC ACID” value [3] was 1.6 mg/dL.

From ChEMBL document CHEMBL3885881, “DrugMatrix”
